Assay results: patent US10196401B2, “Spiro-lactam NMDA receptor modulators and uses thereof” (Aptinyx Inc., priority 2016, dated 2019)
pEC50: −log10 of the molar value. Like-named read-outs stand apart in the source and are kept apart here.

Columns and labels:
[1] = Bioavailability and CSF/brain/plasma distribution after PO dosing; assay type: in vivo, Sprague Dawley rats; details: for Kp / bioavailability: Sprague Dawley, rat, PO administration (Compound A 10 mg/kg); for bioavailability: plasma, read-out: Bioavailablity (% F); for oral bioavailability, in words / proportion able to get to the CSF and brain, in words: comparative statement, comparator not named
Procedure: The bioavailablity of Compound A was investigated following PO administration. CSF, brain and plasma samples were analyzed following dosing with compound A (10 mg/kg). The following table indicates the bioavailablity and CSF/plasma and brain/plasma ratios.
Sprague Dawley rats were dosed intravenously with 2 mg/kg of Compound A. A second group of Sprague Dawley rats was dosed per os with 10 mg/kg of compound A. Plasma samples were drawn over a 24 h period and analyzed for Compound A.
In another experiment, Sprague Dawley rats were dosed per os with 10 mg/kg of Compound A. Plasma, brain, and CSF samples were analyzed at various time points over a 24 hour period. […]

NMDAR2A = NMDAR2A (Homo sapiens, UniProt Q12879); test: Potentiation of [3H]MK-801 binding, NMDAR2A; design: species or system rat; details: NMDAR2A binding profile, wild-type
NMDAR2A, sequence (Q12879 23-1464, species assumed, other chains not shown): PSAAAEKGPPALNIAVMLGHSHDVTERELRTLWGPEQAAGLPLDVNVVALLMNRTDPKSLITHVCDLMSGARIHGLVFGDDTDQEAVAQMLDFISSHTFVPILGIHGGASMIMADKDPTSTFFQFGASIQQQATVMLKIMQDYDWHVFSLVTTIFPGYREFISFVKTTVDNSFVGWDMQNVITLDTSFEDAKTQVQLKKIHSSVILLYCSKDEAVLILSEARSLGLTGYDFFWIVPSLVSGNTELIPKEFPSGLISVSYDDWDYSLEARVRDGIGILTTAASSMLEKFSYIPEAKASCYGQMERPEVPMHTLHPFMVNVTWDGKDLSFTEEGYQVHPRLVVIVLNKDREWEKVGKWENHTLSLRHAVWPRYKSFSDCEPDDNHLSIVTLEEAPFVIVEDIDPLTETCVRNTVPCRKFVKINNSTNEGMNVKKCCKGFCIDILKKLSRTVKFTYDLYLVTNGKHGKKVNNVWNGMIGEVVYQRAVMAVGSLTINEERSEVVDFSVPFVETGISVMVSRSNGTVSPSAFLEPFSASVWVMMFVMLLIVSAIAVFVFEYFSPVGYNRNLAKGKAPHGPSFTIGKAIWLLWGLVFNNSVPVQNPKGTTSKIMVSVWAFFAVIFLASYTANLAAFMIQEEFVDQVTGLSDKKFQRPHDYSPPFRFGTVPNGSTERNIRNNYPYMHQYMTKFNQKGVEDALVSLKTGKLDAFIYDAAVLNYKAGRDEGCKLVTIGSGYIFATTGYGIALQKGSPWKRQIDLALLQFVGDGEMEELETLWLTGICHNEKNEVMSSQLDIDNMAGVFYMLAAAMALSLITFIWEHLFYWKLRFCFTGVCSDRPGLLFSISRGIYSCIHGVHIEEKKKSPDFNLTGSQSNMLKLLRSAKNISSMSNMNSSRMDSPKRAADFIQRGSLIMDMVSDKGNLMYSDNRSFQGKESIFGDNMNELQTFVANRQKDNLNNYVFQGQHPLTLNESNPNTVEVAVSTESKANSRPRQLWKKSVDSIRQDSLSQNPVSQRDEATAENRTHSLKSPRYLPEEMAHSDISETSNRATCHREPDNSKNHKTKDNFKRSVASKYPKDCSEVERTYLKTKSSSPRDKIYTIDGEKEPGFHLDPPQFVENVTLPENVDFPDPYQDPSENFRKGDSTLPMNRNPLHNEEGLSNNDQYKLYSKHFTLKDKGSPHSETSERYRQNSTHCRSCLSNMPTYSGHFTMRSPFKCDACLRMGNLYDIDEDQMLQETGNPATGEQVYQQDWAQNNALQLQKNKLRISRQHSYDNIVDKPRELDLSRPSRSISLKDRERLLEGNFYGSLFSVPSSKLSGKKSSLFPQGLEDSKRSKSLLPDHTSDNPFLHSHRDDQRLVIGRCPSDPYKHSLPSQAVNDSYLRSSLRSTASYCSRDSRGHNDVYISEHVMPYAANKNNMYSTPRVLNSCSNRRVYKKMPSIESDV

[2] = Microsomal stability, rat; assay type: in vitro ADME
Procedure: Microsomal and plasma stability of Compound A was investigated. The following table indicates the percent of Compound A remaining after 60 minutes.
Microsomal and plasma stability of Compound B was investigated. The following table indicates the percent of Compound B remaining after 60 minutes.

Sprague Dawley rats = test: Bennett model of mechanical analgesia (paw withdrawal threshold); assay type: in vivo, rat; details: single dose of 10 mg/kg PO; 1 hr, 24 hrs and 1 week post-dosing
Procedure: Bennett G J, Xie Y K, “A peripheral mononeuropathy in rat that produces disorders of pain sensation like those seen in man,” Pain 33:87-107, 1988. […] Vehicle animals receive the surgery and then receive vehicle rather than test compound. Animals were tested 1 hr, 24 h and 1 wk post-test compound or vehicle administration.
Male 2-3 month old Sprague Dawley rats were used. Harlan was the supplier for all studies. Rats were housed in Lucite cages with aspen wood chip bedding, maintained on a 12:12 light:dark cycle (lights on at 5 AM), and given ad libitum access to Purina lab chow (USA) and tap water throughout the study.
Rats were anesthetized using inhaled isoflurane (2.5%). Spared nerve injury surgery was performed as previously described (Bennett and Xie, 1988). An incision (˜1.5 cm in length) was made with a scalpel blade dorsally through skin on the right hindlimb, parallel and posterior to femur. Using a small pointed hemostat, the biceps femoris and gluteus superficialis muscles were separated. Using curved blunt forceps, the common sciatic nerve was isolated and exposed. For the mechanical analgesia studies, the whole sciatic nerve was ligated. Using hemostats/forceps and chromic gut (5-0), the nerve was loosely ligated with a square knot; 3 ligatures, 1 mm apart were placed on the nerve. […] For the thermal analgesia studies, the common peroneal and tibial branches of the sciatic nerve were ligated and cut, and the sural branch was spared. See Decosterd I, Woolf C J, “Spared nerve injury: an animal model of persistent peripheral neuropathic pain,” Pain 87:149-158, 2000. Testing occurred 1-2 weeks post-surgery.
During testing, rats were acclimated to the surface of a suspended wire mesh grid (1 cm×1 cm, with the wire being 0.3 cm in diameter) for 15-20 min. Starting from the smallest, each Von Frey filament was pressed perpendicularly to the plantar surface of the affected (ipsilateral) hindpaw until slightly bent and then held for 6 second. […]

NMDAR2D = NMDAR2D (Homo sapiens, UniProt O15399+Q05586); test: Potentiation of [3H]MK-801 binding, NMDAR2D; design: species or system rat; details: NMDAR2D binding profile, wild-type
NMDAR2D, sequence (O15399 28-1336, species assumed, other chains not shown): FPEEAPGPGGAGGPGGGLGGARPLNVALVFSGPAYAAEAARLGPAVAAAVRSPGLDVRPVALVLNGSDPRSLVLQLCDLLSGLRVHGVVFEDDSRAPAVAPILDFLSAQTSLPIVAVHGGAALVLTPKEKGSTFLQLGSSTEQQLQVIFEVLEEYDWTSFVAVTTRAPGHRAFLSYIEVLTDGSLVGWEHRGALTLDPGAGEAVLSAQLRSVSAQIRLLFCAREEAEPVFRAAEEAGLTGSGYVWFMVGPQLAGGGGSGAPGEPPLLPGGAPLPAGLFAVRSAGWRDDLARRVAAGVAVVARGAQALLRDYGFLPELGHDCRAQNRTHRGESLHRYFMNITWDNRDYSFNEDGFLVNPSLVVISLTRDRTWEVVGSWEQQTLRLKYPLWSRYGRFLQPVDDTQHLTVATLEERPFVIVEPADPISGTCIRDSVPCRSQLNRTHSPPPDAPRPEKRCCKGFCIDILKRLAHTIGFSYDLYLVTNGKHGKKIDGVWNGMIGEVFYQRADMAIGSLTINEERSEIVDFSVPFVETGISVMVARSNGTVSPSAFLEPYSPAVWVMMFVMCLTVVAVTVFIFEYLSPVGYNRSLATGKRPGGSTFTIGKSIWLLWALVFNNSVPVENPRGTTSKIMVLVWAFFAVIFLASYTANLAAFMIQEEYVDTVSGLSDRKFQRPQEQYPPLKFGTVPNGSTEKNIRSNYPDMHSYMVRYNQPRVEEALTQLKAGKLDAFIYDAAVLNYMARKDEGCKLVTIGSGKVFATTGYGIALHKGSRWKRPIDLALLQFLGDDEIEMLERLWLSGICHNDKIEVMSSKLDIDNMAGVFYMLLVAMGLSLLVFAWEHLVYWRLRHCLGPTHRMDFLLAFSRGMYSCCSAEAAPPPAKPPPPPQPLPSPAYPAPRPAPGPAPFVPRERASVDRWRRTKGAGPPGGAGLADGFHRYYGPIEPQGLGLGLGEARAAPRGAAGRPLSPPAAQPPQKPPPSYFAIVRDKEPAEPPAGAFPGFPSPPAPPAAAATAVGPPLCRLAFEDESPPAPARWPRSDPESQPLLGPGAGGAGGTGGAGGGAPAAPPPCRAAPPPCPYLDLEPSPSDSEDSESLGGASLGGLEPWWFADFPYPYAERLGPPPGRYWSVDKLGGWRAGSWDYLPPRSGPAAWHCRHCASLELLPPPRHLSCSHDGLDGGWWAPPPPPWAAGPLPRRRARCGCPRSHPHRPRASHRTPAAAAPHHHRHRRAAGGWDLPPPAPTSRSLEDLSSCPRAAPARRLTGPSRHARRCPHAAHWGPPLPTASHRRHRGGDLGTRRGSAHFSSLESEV
Procedure: Assays were conducted as described by Moskal et al., “GLYX-13: a monoclonal antibody-derived peptide that acts as an N-rnethyl-D-aspartate receptor modulator,” Neuropharmacology, 49, 1077-87, 2005. The potentiation of [^3H]MK-801 binding (5 nrM; 22.5 Ci/mmol) to well washed rat cortical membranes (200 μg) was measured under non-equilibrium conditions (15 min @ 25° C.) in the presence of increasing concentrations of Compound A.
Assays were conducted as described above in Example 5, by Moskal et al. (2005).

[3] = CSF/plasma, read-out: CSF/plasma ratio
[4] = brain/plasma, read-out: Brain/plasma ratio

Compound | Kp [1, 3] | Kp [1, 4] | bioavailability [1] | oral bioavailability, in words [1] | proportion able to get to the CSF and brain, in words [1] | pEC50 (NMDAR2A) | Microsomal stability, percent remaining after 60 minutes [2] | mechanical analgesic effect in the Bennett model (Sprague Dawley rats) | pEC50 (NMDAR2D)
CC(C)CN1CCC[C@]12CN([C@H](C(N)=O)[C@@H](C)O)C2=O [Compound A, (2S,3R)-3-hydroxy-2-((R)-5-isobutyl-1-oxo-2,5-diazaspiro[3.4]octan-2-yl)butanamide] | 0.65 | 0.19 | 42% | lower oral bioavailability | a higher proportion is able to get to the CSF and brain | 11.34 | 65% | produced a mechanical analgesic effect | 
CC(C)CN1CCC[C@@]12CN([C@H](C(N)=O)[C@@H](C)O)C2=O [Compound B, (2S,3R)-3-hydroxy-2-((S)-5-isobutyl-1-oxo-2,5-diazaspiro[3.4]octan-2-yl)butanamide] | 0.7 | 0.18 | 38% | lower oral bioavailability | a higher proportion is able to get to the CSF and brain | 9.01 | 81% | produced a mechanical analgesic effect | 8.40
